The results in this text go back to patent US5644025A, “Tetrapeptides deriving from dalbaheptide antibiotics” (Gruppo Lepetit SPA, priority 1990, dated 1997).

Holding throughout (experiment): in vitro antibacterial activity, MIC by dilution test in microtiter
The subject of experiment [1] is S. epidermidis clin. isol. The experiment is classed as cell-based. The conditions noted are these: strain L 533; Iso-Sensitest broth, inoculum about 5×10^5 cfu/ml, 0.01% bovine serum albumin, 37° C., 18-24 hours. The method, then: (§1) The in vitro antibacterial activity of the compounds is determined by means of standard […] tests in microtiter. Iso-Sensitest broth (Oxoid) is used for all bacteria except streptococci (Todd-Wewitt broth, Difco) and enterococci (Mueller-Hinton, Difco). Broth cultures are diluted so that the final inoculum is about 5×10^5 cfu/ml (colony forming units per ml). All broth microdilution MICs are performed in the presence of 0.01% bovine serum albumin (Pentax fraction V, Sigma).

The subject of experiment [2] is Staph. aureus Tour. The experiment is classed as cell-based. The conditions noted are these: strain L 165; Iso-Sensitest broth, inoculum about 5×10^5 cfu/ml, 0.01% bovine serum albumin, 37° C., 18-24 hours. The method, then:
as §1

Experiment [3] relates to S. haemolyticus clin, isol. It is filed as cell-based. The conditions noted are these: strain L 602; Iso-Sensitest broth, inoculum about 5×10^5 cfu/ml, 0.01% bovine serum albumin, 37° C., 18-24 hours. The method, then:
as §1

Experiment [4] has as its system S. aureus Smith. It is filed as cell-based. The conditions noted are these: strain L 819; Iso-Sensitest broth, inoculum about 5×10^5 cfu/ml, 0.01% bovine serum albumin, 37° C., 18-24 hours. The procedure:
as §1

For experiment [5], the system named is Strep. pyogenes C203. The experiment is classed as cell-based. The conditions noted are these: strain L 49; Todd-Wewitt broth, inoculum about 5×10^5 cfu/ml, 0.01% bovine serum albumin, 37° C., 18-24 hours. The method, then: as §1
Experiment [6] relates to S. epidermidis ATCC 12,228. The experiment is classed as cell-based. As to conditions: strain L 147; Iso-Sensitest broth, inoculum about 5×10^5 cfu/ml, 0.01% bovine serum albumin, 37° C., 18-24 hours. The method, then:
as §1

The test system of experiment [7] is Strep. pneumoniae UC41. The experiment is classed as cell-based. As to conditions: strain L 44; Todd-Wewitt broth, inoculum about 5×10^5 cfu/ml, 0.01% bovine serum albumin, 37° C., 18-24 hours. The method, then:
as §1

For experiment [8], the system named is Enterococcus faecalis ATCC 7,080. It is filed as cell-based. As to conditions: strain L 149; Mueller-Hinton broth, inoculum about 5×10^5 cfu/ml, 0.01% bovine serum albumin, 37° C., 18-24 hours. The method, then: as §1
In experiment [9] the test system is S. aureus clin. isol. It is filed as cell-based. As to conditions: strain L 561; Iso-Sensitest broth, inoculum about 5×10^5 cfu/ml, 0.01% bovine serum albumin, 37° C., 18-24 hours. The method, then:
as §1

In experiment [10] the test system is E. faecalis clin. isol. It is filed as cell-based, Enterococcus faecalis. The conditions noted are these: for MIC: strain L 502, Mueller-Hinton broth, inoculum about 5×10^5 cfu/ml, 0.01% bovine serum albumin, 37° C., 18-24 hours. The procedure: as §1

≈ marks a conversion by molar mass, not a printed value.

In general, MIC refers to the lowest concentration that inhibits growth of the organism. Read a high MIC as a need for much substance. On to `N[C@H]1C(=O)N[C@@H]2Cc3ccc(c(Cl)c3)Oc3cc4cc(c3O)Oc3ccc(cc3Cl)[C@@H](O)[C@@H]3NC(=O)[C@H](NC(=O)[C@@H]4NC(=O)[C@@H](NC2=O)c2cc(O)cc(c2)Oc2cc1ccc2O)c1ccc(O)c(c1)-c1c(O)cc(O)cc1[C@@H](C(=O)O)NC3=O` [teicoplanin aglycon], for which the minimum inhibitory concentration (MIC) in experiment [1] was 0.016 µg/mL (≈ 0.0133 µM); in experiment [2], 0.13 µg/mL (≈ 0.108 µM); in [3] it was 0.25 µg/mL (≈ 0.209 µM); in experiment [4], 0.06 µg/mL (≈ 0.05 µM); in experiment [5], 0.13 µg/mL (≈ 0.108 µM); in [6], 0.06 µg/mL (≈ 0.05 µM). The MIC in experiment [7] was 0.13 µg/mL (≈ 0.108 µM); in experiment [8] it was 0.13 µg/mL (≈ 0.108 µM); in experiment [9] it was 0.13 µg/mL (≈ 0.108 µM); in experiment [10] it was greater than 128 µg/mL. For the same molecule, in experiment [10], the “activity against a clinical isolate of Enterococcus faecalis (in words)” value (“activity against a clinical isolate” for short) is reported as “resistant”.

As to teicoplanin, the MIC amounted to 8 µg/mL in experiment [1]; 0.13 µg/mL in experiment [2]; 32 µg/mL in [3]; 0.25 µg/mL in experiment [4]; 0.13 µg/mL in experiment [5]; 8 µg/mL in experiment [6]. Further, the MIC was 0.13 µg/mL in experiment [7], 0.13 µg/mL in experiment [8], 8 µg/mL in experiment [9] and greater than 128 µg/mL in experiment [10]. Also, in [10], the “activity against a clinical isolate” value is “resistant”.

For the molecule “(L-phenylalanyl)^3 -(D-lysyl)^15 -aglucoteicoplanin dalbaheptide methyl ester”, the MIC is 0.13 µg/mL in experiment [1]; 0.13 µg/mL in experiment [2]; 0.5 µg/mL in [3]; 0.13 µg/mL in [4]; 0.25 µg/mL in [5]; 0.13 µg/mL in experiment [6]. Also, the MIC in [7] was found to be 0.13 µg/mL; in experiment [8], 0.5 µg/mL; in experiment [9], 0.06 µg/mL; in experiment [10], 16 µg/mL. Also, the “activity against a clinical isolate” value in experiment [10] is reported as “surprisingly active”.
